± gives the expanded uncertainty stated by the source.
CCCCn1cc[n+](C)c1.O=S(=O)([O-])C(F)(F)F [1-butyl-3-methylimidazolium trifluoromethanesulfonate]
surface tension liquid-gas [mN/m]
Conditions	Wilhelmy plate method	du Nouy method
292.18 K	35.39 ± 0.09	–
292.24 K	–	35.4 ± 0.09
293.4 K	35.21 ± 0.18	–
293.45 K	–	35.17 ± 0.18
298.06 K	35.18 ± 0.09	–
298.12 K	–	35.2 ± 0.09
298.22 K	35.09 ± 0.18	–
298.27 K	–	35.1 ± 0.18
303.03 K	35.05 ± 0.09	–
303.09 K	–	35.09 ± 0.09
303.18 K	34.87 ± 0.17	–
303.2 K	–	34.98 ± 0.18
308.01 K	34.71 ± 0.17	–
308.06 K	34.83 ± 0.09	–
308.08 K	–	34.85 ± 0.09
313.26 K	34.65 ± 0.09	–
313.31 K	–	34.63 ± 0.09
313.58 K	–	34.59 ± 0.17
313.59 K	34.54 ± 0.17	–
318.1 K	–	34.44 ± 0.09
318.13 K	34.53 ± 0.09	–
318.51 K	34.35 ± 0.17	–
318.68 K	–	34.36 ± 0.17
322.87 K	34.34 ± 0.09	–
322.93 K	34.18 ± 0.17	–
322.99 K	–	34.22 ± 0.17
327.64 K	34.19 ± 0.09	34.08 ± 0.09
328.05 K	34.03 ± 0.17	–
328.09 K	–	33.8 ± 0.17
332.66 K	33.85 ± 0.17	–
332.74 K	–	33.82 ± 0.17
333.21 K	34.01 ± 0.09	–
333.25 K	–	33.89 ± 0.09
337.68 K	33.81 ± 0.09	–
337.83 K	33.74 ± 0.17	–
337.84 K	–	33.44 ± 0.17
337.92 K	–	33.73 ± 0.09
342.72 K	33.61 ± 0.08	–
343.12 K	–	33.47 ± 0.08
343.53 K	33.47 ± 0.17	–
343.61 K	–	33.41 ± 0.17
347.73 K	–	33.36 ± 0.08
347.79 K	33.54 ± 0.09	–
348.54 K	33.28 ± 0.17	–
348.64 K	–	32.9 ± 0.17
352.45 K	33.27 ± 0.08	–
352.7 K	–	33.08 ± 0.09
355.89 K	33 ± 0.17	–
356 K	–	32.82 ± 0.16

CCn1cc[n+](C)c1.O=S(=O)([O-])C(F)(F)F [1-ethyl-3-methylimidazolium trifluoromethanesulfonate]
Conditions	surface tension liquid-gas [mN/m]
268.29 K, Wilhelmy plate method	41.39 ± 0.21
268.36 K, du Nouy ring method	41.4 ± 0.21
272.08 K, Wilhelmy plate method	41.28 ± 0.21
272.13 K, du Nouy ring method	41.3 ± 0.21
276.54 K, Wilhelmy plate method	41.1 ± 0.21
276.65 K, du Nouy ring method	41.16 ± 0.21
281 K, Wilhelmy plate method	40.96 ± 0.2
281.05 K, du Nouy ring method	41.1 ± 0.21
287.58 K, du Nouy ring method	40.79 ± 0.2
287.63 K, Wilhelmy plate method	40.69 ± 0.2
293 K, du Nouy ring method	40.74 ± 0.2
293.01 K, Wilhelmy plate method	40.52 ± 0.2
298.01 K, Wilhelmy plate method	40.43 ± 0.2
298.04 K, du Nouy ring method	40.39 ± 0.2
303.18 K, du Nouy ring method	40.18 ± 0.2
303.2 K, Wilhelmy plate method	40.24 ± 0.2
308.2 K, Wilhelmy plate method	40.07 ± 0.2
308.31 K, du Nouy ring method	40.01 ± 0.2
313.27 K, Wilhelmy plate method	39.93 ± 0.2
313.31 K, du Nouy ring method	39.75 ± 0.2
318.36 K, Wilhelmy plate method	39.68 ± 0.2
318.39 K, du Nouy ring method	39.83 ± 0.2
323.33 K, Wilhelmy plate method	39.5 ± 0.2
323.38 K, du Nouy ring method	39.38 ± 0.2
328.2 K, du Nouy ring method	39.44 ± 0.2
333.07 K, Wilhelmy plate method	39.16 ± 0.2
333.12 K, du Nouy ring method	39.24 ± 0.2
338.1 K, Wilhelmy plate method	39.03 ± 0.2
338.15 K, du Nouy ring method	39.02 ± 0.2
343.14 K, Wilhelmy plate method	38.85 ± 0.2
343.21 K, du Nouy ring method	38.85 ± 0.19
348.38 K, Wilhelmy plate method	38.65 ± 0.19
348.53 K, du Nouy ring method	38.62 ± 0.19
356.09 K, Wilhelmy plate method	38.37 ± 0.19
356.28 K, du Nouy ring method	38.31 ± 0.19

CCCCCCn1cc[n+](C)c1.O=S(=O)([O-])C(F)(F)F [1-hexyl-3-methylimidazolium trifluoromethanesulfonate]
surface tension liquid-gas [mN/m]
Conditions	Wilhelmy plate method	de Nouy ring method
293.98 K	32.58 ± 0.16	–
294.03 K	–	32.64 ± 0.16
298.11 K	–	32.37 ± 0.16
298.13 K	32.37 ± 0.16	–
303.23 K	32.17 ± 0.16	–
303.24 K	–	32.19 ± 0.16
308.28 K	31.99 ± 0.16	–
308.32 K	–	32.01 ± 0.17
313.29 K	31.8 ± 0.16	–
313.3 K	–	31.86 ± 0.16
318.29 K	–	31.66 ± 0.16
318.3 K	31.64 ± 0.16	–
323.49 K	–	31.42 ± 0.16
323.5 K	31.45 ± 0.16	–
328.04 K	31.35 ± 0.16	–
328.12 K	–	31.25 ± 0.16
333.26 K	31.09 ± 0.16	–
333.32 K	–	30.89 ± 0.15
337.85 K	30.92 ± 0.16	–
337.88 K	–	30.81 ± 0.15
342.94 K	30.72 ± 0.15	–
343.09 K	–	30.5 ± 0.15
347.58 K	30.55 ± 0.15	–
347.59 K	–	30.38 ± 0.15
355.44 K	30.28 ± 0.15	30.06 ± 0.15

CCCCCCn1cc[n+](C)c1.F[B-](F)(F)F [1-hexyl-3-methylimidazolium tetrafluoroborate]
surface tension liquid-gas [mN/m]
Conditions	Wilhelmy plate method	du Nouy ring method
268.58 K	39.81 ± 0.2	39.79 ± 0.2
273.34 K	39.52 ± 0.2	39.54 ± 0.2
277.72 K	39.29 ± 0.2	–
277.76 K	–	39.32 ± 0.2
282.51 K	39.04 ± 0.2	–
282.71 K	–	39.21 ± 0.2
288.13 K	38.71 ± 0.19	38.75 ± 0.19
292.87 K	38.47 ± 0.19	–
292.93 K	–	38.49 ± 0.19
298.07 K	38.2 ± 0.19	38.21 ± 0.19
303.15 K	37.88 ± 0.19	–
303.19 K	–	37.85 ± 0.19
308.22 K	–	37.66 ± 0.19
308.23 K	37.64 ± 0.19	–
313.35 K	37.32 ± 0.19	–
313.48 K	–	37.33 ± 0.19
318.39 K	–	37.08 ± 0.19
318.48 K	37.08 ± 0.19	–
323.32 K	–	36.83 ± 0.18
323.34 K	36.81 ± 0.18	–
328.17 K	36.53 ± 0.18	–
328.2 K	–	36.54 ± 0.18
333.22 K	36.25 ± 0.18	–
333.24 K	–	36.21 ± 0.18
337.92 K	36.01 ± 0.18	–
337.97 K	–	36 ± 0.18
343.79 K	35.68 ± 0.18	35.7 ± 0.18
348.5 K	35.44 ± 0.18	–
348.54 K	–	35.39 ± 0.18
356.17 K	34.99 ± 0.18	–
356.18 K	–	35 ± 0.18

CCn1cc[n+](C)c1.F[B-](F)(F)F [1-ethyl-3-methylimidazolium tetrafluoroborate]
surface tension liquid-gas [mN/m]
Conditions	Wilhelmy plate method	du Nouy ring method
288.05 K	–	54.61 ± 0.06
288.06 K	54.61 ± 0.06	–
292.92 K	54.28 ± 0.06	–
292.93 K	–	54.55 ± 0.06
298.1 K	53.97 ± 0.06	–
298.12 K	–	54.01 ± 0.05
303.12 K	53.65 ± 0.05	–
303.13 K	–	53.96 ± 0.06
308.27 K	53.34 ± 0.05	53.77 ± 0.05
313.33 K	52.98 ± 0.05	–
313.43 K	–	53.05 ± 0.05
318.3 K	52.7 ± 0.05	–
318.35 K	–	52.86 ± 0.05
323.5 K	52.39 ± 0.05	–
323.53 K	–	52.54 ± 0.05
328.4 K	52.05 ± 0.05	–
328.54 K	–	52.18 ± 0.05
333.32 K	51.74 ± 0.05	–
333.48 K	–	51.87 ± 0.05
338.38 K	–	51.48 ± 0.05
338.39 K	51.4 ± 0.05	–
343.18 K	51.11 ± 0.05	–
343.32 K	–	51.11 ± 0.05
348.7 K	50.76 ± 0.05	–
348.78 K	–	50.74 ± 0.06
355.91 K	–	50.26 ± 0.05
355.99 K	50.27 ± 0.05	–

— the NIST ThermoML archive (doi:10.1016/j.fluid.2011.01.027)
